According to patent US5976866A, “Screen for inhibitors of fungal IPC synthase” (Eli Lilly and Company, priority 1997, dated 1999):
Values after ≈ are worked out from the molar mass of the structure shown. Where two headings read alike, the source gives them in different places.

How the values were obtained:
Format in all cases: cell-based, S. cerevisiae
[1] = tested on: YPH499 (transformed by YEp352); assay: Sensitivity to antifungal compounds (MIC), wild-type YPH499 (YEp352); details: for MIC: Saccharomyces cerevisiae, read-out: Minimum Inhibitory Concentration
Description: (§1) Strains A and B, and wild-type strain YPH499 (transformed with YEp352) were tested for sensitivity to a variety of known antifungal compounds. Cells were grown in YEPD or SC-URA (2% glucose) liquid culture and dispensed into the wells of a 96-well microtiter dish containing decreasing amounts of antifungal compounds, as in Example 2.
(§2) ^a Cells were grown in SCURA (2% glucose)
^b YPH499 is transformed by YEp352.

Strain A = assay: Sensitivity to antifungal compounds (MIC), Strain A; details: for MIC: Saccharomyces cerevisiae, read-out: Minimum Inhibitory Concentration
Description: as §1, §2

Strain B = assay: Sensitivity to antifungal compounds (MIC), Strain B; details: for MIC: Saccharomyces cerevisiae, read-out: Minimum Inhibitory Concentration
Description: as §1, §2

strains A and B = assay: Whole-cell comparison of strains A and B (and wild type) with antifungal compounds that do not target IPC synthase; details: strains A and B compared
Description: as §1

SMILES | MIC ([1]; SC-URA (2% glucose)) | MIC (Strain A; SC-URA (2% glucose)) | MIC (Strain B; SC-URA (2% glucose)) | effect on strains A and B (in words) (strains A and B) | other results
C[C@@H]1[C@H](O)[C@@H](C)/C=C/C=C/C=C/C=C/C=C/C=C/C=C/[C@H](O[C@@H]2O[C@H](C)[C@@H](O)[C@H](N)[C@@H]2O)C[C@@H]2O[C@](O)(C[C@@H](O)C[C@@H](O)[C@H](O)CC[C@@H](O)C[C@@H](O)CC(=O)O[C@H]1C)C[C@H](O)[C@H]2C(=O)O [Amphotericin B] | 2500 µg/mL (≈ 2710 µM) | 2500 µg/mL (≈ 2710 µM) | 2500 µg/mL (≈ 2710 µM) | equally affected | 
C[C@@H]1C[C@@H]([C@H](O)CC2CC(=O)NC(=O)C2)C(=O)[C@@H](C)C1 [Cycloheximide] |  |  |  | equally affected | MIC [1]: 300 µg/mL (≈ 1070 µM); MIC (Strain A): 300 µg/mL (≈ 1070 µM); MIC (Strain B): 600 µg/mL (≈ 2130 µM)
OC(Cn1cncn1)(Cn1cncn1)c1ccc(F)cc1F [Fluconazole] | > 80000 µg/mL | > 80000 µg/mL | > 80000 µg/mL | equally affected | 
CCC(C)n1ncn(-c2ccc(N3CCN(c4ccc(OCC5COC(Cn6cncn6)(c6ccc(Cl)cc6Cl)O5)cc4)CC3)cc2)c1=O (centres unmarked) [Itraconazole] | 1200 µg/mL (≈ 1700 µM) | 1200 µg/mL (≈ 1700 µM) | 1200 µg/mL (≈ 1700 µM) |  | 
C[C@@H]1[C@H](O)[C@@H](C)/C=C/C=C/CC/C=C/C=C/C=C/C=C/C(O[C@H]2O[C@H](C)[C@@H](O)[C@H](N)[C@@H]2O)CC2O[C@](O)(CC(O)C(O)CCC(O)CC(O)CC(O)CC(=O)O[C@H]1C)CC(O)C2C(=O)O (some centres unmarked) [Nystatin] |  |  |  | equally affected | Minimum Inhibitory Concentration ([1]; SC-URA (2% glucose)): 20 mg/mL; Minimum Inhibitory Concentration (Strain A; SC-URA (2% glucose)): 20 mg/mL; Minimum Inhibitory Concentration (Strain B; SC-URA (2% glucose)): 20 mg/mL
CC(=O)N1CCN(c2ccc(OCC3COC(Cn4ccnc4)(c4ccc(Cl)cc4Cl)O3)cc2)CC1 (centres unmarked) [ketoconazole] |  |  |  | equally affected | 
